Where two headings read alike, the source gives them in different places.
Key:
human PPARα = biological target: T1, human PPARα (Homo sapiens, UniProt Q07869); assay: Measurement of transcriptional activity (GAL4-PPAR LBD chimera, PLAP reporter, CV-1 cells); assay type: cell-based
T1 construct: human PPAR 167-468 (PPARα), 138-440 (NUC-1) and 174-475 (PPARY) amino acid regions; expressed in transfected cells; host or cells: CV-1 (ATCC CCL-70D)
T1 sequence (Q07869 167-468): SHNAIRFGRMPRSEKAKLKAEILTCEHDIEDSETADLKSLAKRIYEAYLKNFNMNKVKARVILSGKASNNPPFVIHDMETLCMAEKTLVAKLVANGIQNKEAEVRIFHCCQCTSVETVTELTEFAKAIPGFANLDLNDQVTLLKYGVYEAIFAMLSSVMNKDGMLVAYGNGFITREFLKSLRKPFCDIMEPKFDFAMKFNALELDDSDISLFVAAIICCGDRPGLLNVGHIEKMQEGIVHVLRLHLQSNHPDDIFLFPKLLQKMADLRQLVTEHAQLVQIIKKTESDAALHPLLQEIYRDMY
Experimental: (§1) Measurement of Transcriptional Activity
(§2) As the reporter gene, PLAP (Placental Alkaline Phosphatase) was used, and this was ligated downstream of a TK promoter containing a 5-copy GAL4 DNA binding element to construct a vector. As host cells, CV-1 (ATCC CCL-70D) was used. That is, CV-1 cells were spread at a density of 5×10^5 cells on a 35-mm dish and cultured in 10% FCS/DMEM for 24 hours, and using FuGENE 6 transfection reagent, the cells were co-transfected with the GAL4-PPAR LBD expression vector and GAL4 DBD-TK-PLAP expression vector. 24 hours after this transfection, the cells were spread again on a 96-well plate at a density of 1×10^4/well and further cultured for 24 hours. After 24 hours, the medium was exchanged with DMEM containing 10% FCS, which was previously treated at 65° C. for inactivating intrinsic alkaline phosphatase, and a test compound was added at an arbitrary concentration. […] The […] was determined after adding 50 μl assay buffer and 50 μl chemoluminescence substrate to 10 μl culture supernatant and incubating the mixture at room temperature for 1 hour.

human PPARβ (NUC-1) = biological target: T2, human PPARβ (NUC-1) (Homo sapiens, UniProt Q03181); assay: as above; assay type: cell-based
T2 construct: human PPAR 167-468 (PPARα), 138-440 (NUC-1) and 174-475 (PPARY) amino acid regions; expressed in transfected cells; host or cells: CV-1 (ATCC CCL-70D)
T2 sequence (Q03181 138-440): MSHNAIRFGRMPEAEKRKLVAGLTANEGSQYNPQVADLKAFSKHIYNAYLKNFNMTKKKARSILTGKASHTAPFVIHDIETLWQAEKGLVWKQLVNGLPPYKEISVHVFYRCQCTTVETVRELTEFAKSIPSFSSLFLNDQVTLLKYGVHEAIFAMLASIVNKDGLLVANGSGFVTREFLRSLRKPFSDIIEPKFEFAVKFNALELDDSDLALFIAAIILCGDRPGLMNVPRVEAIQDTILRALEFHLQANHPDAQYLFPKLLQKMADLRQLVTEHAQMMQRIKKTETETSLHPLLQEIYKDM
Experimental: as §1, §2

human PPARγ = biological target: T3, human PPARγ (Homo sapiens, UniProt P37231); assay: as above; assay type: cell-based; conditions: PLAP activity 24 hours after addition of the compound, read-out: Transcriptional activities EC50 PRAR γ
T3 construct: human PPAR 167-468 (PPARα), 138-440 (NUC-1) and 174-475 (PPARY) amino acid regions; expressed in transfected cells; host or cells: CV-1 (ATCC CCL-70D)
T3 sequence (P37231 204-505): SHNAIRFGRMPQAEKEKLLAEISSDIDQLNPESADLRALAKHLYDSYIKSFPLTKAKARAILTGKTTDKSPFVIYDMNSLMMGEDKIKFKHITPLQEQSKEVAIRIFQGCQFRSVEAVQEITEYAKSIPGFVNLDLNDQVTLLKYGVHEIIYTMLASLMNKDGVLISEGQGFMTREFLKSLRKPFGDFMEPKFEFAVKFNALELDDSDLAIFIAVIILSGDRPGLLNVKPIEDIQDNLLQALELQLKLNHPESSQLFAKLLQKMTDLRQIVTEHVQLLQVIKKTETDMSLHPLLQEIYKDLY
Experimental: as §1, §2

male db/db mice = assay: Measurement of blood sugar reduction, blood triglyceride reduction and blood free fatty acid reduction in db/db mice; conditions: in vivo db/db mice, day 9 after administration, oral once a day
Experimental: Measurement of Blood Sugar Reduction, Blood Triglyceride Reduction and Blood Free Fatty Acid Reduction
Blood, was collected through a tail vein after the mice were fasted for 1 hour, before administration, and on Day 4 and Day 9 after administration, respectively. On Day 10, an oral glucose loading test was conducted; in this test, the mice were fasted overnight from the previous day, and in the next morning, 2 g/kg glucose was given to the mice. Plasma glucose, triglycerides (TG), free fatty acid (NEFA) were measured by using commercial kits, that is, Glucose C-II Test Wako (trade name) (Wako Pure Chemical Industries, Ltd., Tokyo), Deteminer L TG II (trade name) (Kyowa Medex, Tokyo) and NEFA C-Test Wako (Wako Pure Chemical Industries, Ltd., Tokyo), respectively.

[1] = CV-1 cells, GAL4-PPAR LBD chimera, PLAP activity 24 hours after addition of the compound, read-out: Transcriptional activities EC50 PRAR α
[2] = CV-1 cells, GAL4-PPAR LBD chimera, PLAP activity 24 hours after addition of the compound, read-out: Transcriptional activities EC50 PRAR β

Row | Compound | EC50 (human PPARα; [1]) [nM] | EC50 (human PPARβ (NUC-1); [2]) [nM] | EC50 (human PPARγ) [nM] | Blood free fatty acid reduction (%) (male db/db mice; 30 mg/kg/day) | Blood sugar reduction (%) (male db/db mice; 30 mg/kg/day) | Blood triglycerides reduction (%) (male db/db mice; 30 mg/kg/day) | Blood free fatty acid reduction (%) (male db/db mice; 1 mg/kg/day (*)) | Blood sugar reduction (%) (male db/db mice; 1 mg/kg/day (*)) | Blood triglycerides reduction (%) (male db/db mice; 1 mg/kg/day (*)) | EC50 (human PPARα) [nM] | EC50 (human PPARβ (NUC-1)) [nM]
1 | CCCOC(Cc1ccc(OC)c(C(=O)NCc2ccc(C(F)(F)F)cc2)c1)C(=O)O (centres unmarked) [Example 9d), 3-[4-methoxy-3-({[4-(trifluoromethyl)benzyl]amino}carbonyl)phenyl]-2-propoxypropanoic acid] | 701 | > 30000 | 746 | 62.9 | 46.1 | 80.4 |  |  |  |  | 
2 | COc1ccc(CC(OC(C)C)C(=O)O)cc1C(=O)NCc1ccc(C(F)(F)F)cc1 (centres unmarked) [Example 2d), 2-Isopropoxy-3-(4-methoxy-3-({[4-(trifluoromethyl)benzyl]amino}carbonyl)phenyl)propanoic acid] | 80 | 2510 | 382 | 46.7 | 44.6 | 71.6 |  |  |  |  | 
3 | COc1ccc(C[C@H](OC(C)C)C(=O)O)cc1CNC(=O)c1ccc(C(F)(F)F)cc1F [Example 36g), (2S)-3-[3-([2-fluoro-4-(trifluoromethyl)benzoyl]aminomethyl)-4-methoxyphenyl]-2-isopropoxypropanoic acid] | 12 | 37 | 47 |  |  |  | 54.0 | 51.5 | 55.2 |  | 
4 | CCC(Cc1ccc(OC)c(NC(=O)Cc2ccc(C(F)(F)F)c(F)c2)c1)C(=O)O (centres unmarked) [Example 18d), 2-(4-Methoxy-3-{[2-(3-fluoro-4-trifluoromethylphenyl)acetyl]amino}benzyl)butanoic acid] | 162 | 8050 | > 10000 |  |  |  |  |  |  |  | 
5 | COc1ccc(C[C@H](OC(C)C)C(=O)O)cc1CNC(=O)c1ccc(Cl)cc1Cl [Example 37e), (2S)-3-[3-([2,4-dichlorobenzoyl]aminomethyl)-4-methoxyphenyl]-2-isopropoxypropanoic acid] | 28 | 432 | 16 |  |  |  | 70.2 | 48.1 | 68.3 |  | 
6 | CCC(Cc1ccc(OC)c(C(=O)NCc2ccc(C(F)(F)F)cc2)c1)C(=O)O (centres unmarked) [Example 5d), 2-[4-Methoxy-3-({[4-(trifluoromethyl)benzyl]amino}carbonyl)benzyl)butanoic acid] |  |  |  | 65.5 | 53.6 | 58.8 |  |  |  | 394 | 789
7 | COc1ccc(CC(OC(C)(C)C)C(=O)O)cc1C(=O)NCc1ccc(C(F)(F)F)cc1 (centres unmarked) [Example 3d), 2-tert-Butoxy-3-(4-methoxy-3-({[4-(trifluoromethyl)benzyl]amino}carbonyl)phenyl)propanoic acid] | 87 | 5070 | 217 | 47 | 27.5 | 63.8 |  |  |  |  | 

Reference: US6884821B1, “Carboxylic acid derivatives and drugs containing the same” (Eisai Co., Ltd., priority 1999, dated 2005)
